Data published in ChEMBL document CHEMBL2417368, “Structure-based discovery of novel amide-containing nicotinamide phosphoribosyltransferase (nampt) inhibitors” (J Med Chem, 2013).
Active and inactive are the calls of the source. No cut-off for these calls is given here.

How the values were obtained:
[1] = (§1) Metabolic stability in human liver microsomes assessed as compound remaining at 1 uM after 30 mins LC-MS analysis; format: ADME, Microsome; settings: liver microsomes, read-out: Stability
Liver [2] = test: (§2) Metabolic stability in mouse liver microsomes assessed as compound remaining at 1 uM after 30 mins LC-MS analysis; format: ADME, Microsome; settings: microsomes, 0.5 h, 1 µM, BLD = below limit of detection
[3] = molecular target: Nicotinamide phosphoribosyltransferase (Homo sapiens, UniProt P43490)
Chain of Nicotinamide phosphoribosyltransferase (P43490 whole entry): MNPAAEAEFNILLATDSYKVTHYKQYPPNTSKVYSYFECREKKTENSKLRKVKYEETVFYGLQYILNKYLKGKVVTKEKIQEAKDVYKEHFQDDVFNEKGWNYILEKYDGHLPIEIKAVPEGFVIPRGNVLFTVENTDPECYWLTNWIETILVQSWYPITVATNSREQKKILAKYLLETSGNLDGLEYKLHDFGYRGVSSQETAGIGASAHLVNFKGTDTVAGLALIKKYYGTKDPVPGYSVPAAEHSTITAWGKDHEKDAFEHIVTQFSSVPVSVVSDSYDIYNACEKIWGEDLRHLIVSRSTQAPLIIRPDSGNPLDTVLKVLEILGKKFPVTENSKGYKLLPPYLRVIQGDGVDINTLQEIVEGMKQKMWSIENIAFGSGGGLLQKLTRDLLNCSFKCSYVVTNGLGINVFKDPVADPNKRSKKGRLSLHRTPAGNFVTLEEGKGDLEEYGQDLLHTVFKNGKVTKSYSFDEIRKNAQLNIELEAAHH

A2780 = test: cells; settings: Homo sapiens, A2780, 72 h
[4] = Fraction unbound in mouse plasma at 5 uM after 4 hrs by LC-MS/MS analysis; format: ADME, cell-free
[5] = Fraction unbound in human plasma at 5 uM after 4 hrs by LC-MS/MS analysis; format: ADME, cell-free
[6] = Intrinsic clearance in human hepatocytes at 1 uM after 10 mins by LC-MS/MS analysis; format: ADME, cell-based, Hepatocyte; settings: read-out: CLH
[7] = Intrinsic clearance in CD-1 mouse hepatocytes at 1 uM after 10 mins by LC-MS/MS analysis; format: ADME, cell-based, Hepatocyte; settings: read-out: CLH
[8] = as §2; format: ADME, Microsome; settings: liver microsomes, read-out: Stability
in vitro = settings: dog, MDCK
Liver [9] = test: as §1; format: ADME, Microsome; settings: microsomes, 0.5 h, 1 µM, BLD = below limit of detection
U-251 [10] = test: Antitumor activity against human U251 cells xenografted in athymic nu/nu mouse assessed as reduction in tumor size at 25 mg/kg, po QD for 7 days measured on day 13; format: functional, organism-based; design: dose 25 mg/kg
Mus musculus = test: Toxicity in human U251 cells xenografted in athymic nu/nu mouse assessed as change in body weight at 25 mg/kg, po QD for 7 days; format: organism-based, U-251; design: dose 25 mg/kg, route oral; settings: in vivo, 168 h
[11] = AUC (infinity) in NCR nude mouse at 10 mg/kg, po; format: ADME, organism-based; design: time infinity, dose 10 mg/kg, route oral; settings: plasma
[12] = Oral bioavailability in NCR nude mouse at 10 mg/kg; format: ADME, organism-based; settings: in vivo
[13] = Volume of distribution at steady state in NCR nude mouse at 5 mg/kg, iv; format: ADME, organism-based; design: dose 5 mg/kg, route intravenous; settings: in vivo, read-out: Vdss
[14] = Clearance in NCR nude mouse plasma at 5 mg/kg, iv; format: ADME, organism-based; design: dose 5 mg/kg, route intravenous
[15] = Tmax in NCR nude mouse at 10 mg/kg, po; format: ADME, organism-based; design: dose 10 mg/kg, route oral; settings: in vivo
[16] = Cmax in NCR nude mouse at 10 mg/kg, po; format: ADME, organism-based; design: dose 10 mg/kg, route oral; settings: in vivo
HCT-116 = test: Antiproliferative activity against human HCT116 cells assessed as cell viability after 72 hrs; format: functional, cell-based; settings: HCT-116, 72 h
PC-3 = test: Antiproliferative activity against human PC3 cells assessed as cell viability after 72 hrs; format: functional, cell-based; settings: PC-3, 72 h
MIA PaCa-2 = test: Antiproliferative activity against human MIAPaCa2 cells assessed as cell viability after 72 hrs; format: functional, cell-based; settings: MIA PaCa-2, 72 h
HT-1080 = test: Antiproliferative activity against human HT1080 cells assessed as cell viability after 72 hrs; format: functional, cell-based; settings: HT-1080, 72 h
U-251 [17] = test: Antiproliferative activity against human U251 cells assessed as cell viability after 72 hrs by SRB assay; format: functional, cell-based; settings: U-251, 72 h

Row | SMILES | remaining at 0.5 h, 1 µM [1] [%] | IC50 [3] [nM] | IC50 (A2780) [nM] | fraction unbound at 4 h, 5 µM [4] | fraction unbound at 4 h, 5 µM [5] | CLint scaled at 1 µM [6] [mL/min/kg] | CLint scaled at 1 µM [7] [mL/min/kg] | remaining at 0.5 h, 1 µM [8] [%] | Papp A→B at 10 µM (in vitro) [×10⁻⁶ cm/s] | also measured
1 | O=C(NCc1ccc(S(=O)(=O)N2CCCCC2)cc1)c1cc2ccncc2[nH]1 | 50 | 1000 | 1700 |  |  |  |  |  |  | Stability (Liver [2]): BLD
2 | O=C(NCc1ccc(S(=O)(=O)c2ccc(N3CCOCC3)nc2)cc1)c1ccc2nccn2c1 | 65 | 6 | 1 | 0.025 | 0.012 | 10 | 43 | 75 | 3 | 
3 | O=C(NCc1ccc(S(=O)(=O)c2cc(F)cc(F)c2)cc1)c1cnc2nccn2c1 | 78 |  | 3 | 0.133 | 0.122 | 6 | 74 | 71 | 5 | 
4 | O=C(NCc1ccc(S(=O)(=O)c2ccc(N3CCOCC3)nc2)cc1)c1cnc2nccn2c1 | 86 | 1 | 2 | 0.12 | 0.028 | 6 | 69 | 86 | 0.3 | 
5 | O=C(NCc1ccc(S(=O)(=O)N2CCCCC2)cc1)c1cc2cccnc2s1 |  | 8 | > 10000 |  |  |  |  |  |  | Stability (Liver [9]): BLD; Stability (Liver [2]): BLD
6 | N#CN=C(NCCCCCCOc1ccc(Cl)cc1)Nc1ccncc1 [CHS-828] | 61 |  |  | 0.005 | 0.005 | 7 | 21 | 63 | 10 | 
7 | O=C(NCc1ccc(S(=O)(=O)c2ccc(N3CCOCC3)nc2)cc1)c1cc2cnccc2[nH]1 | 75 | 7 | 1 | 0.015 | 0.011 |  | 57 | 72 | 1 | 
8 | O=C(NCc1ccc(S(=O)(=O)c2cccc(C(F)(F)F)c2)cc1)c1cc2ccncc2o1 | 48 | 5 | 3 | 0.011 | 0.01 | 10 | 25 | 64 | 13 | 
9 | O=C(NCc1ccc(S(=O)(=O)c2cc(F)cc(F)c2)cc1)c1ccc2nccn2c1 | 53 |  | 2 | 0.067 | 0.06 | 10 | 42 | 39 | 12 | Activity (U-251 [10]): Active; Activity (Mus musculus): Non-toxic; AUC(0-inf) [11]: 3.06 µM·h; bioavailability [12]: 41.1%; Vd [13]: 6.7 L/kg; clearance [14]: 52.4 mL/min/kg; Tmax [15]: 15 min; Cmax [16]: 1210 nM; IC50 (HCT-116): 2 nM; IC50 (PC-3): 2.7 nM; IC50 (MIA PaCa-2): 7.4 nM; IC50 (HT-1080): 2.1 nM; IC50 (U-251 [17]): 1.8 nM
10 | O=C(NCc1ccc(S(=O)(=O)c2cc(F)cc(F)c2)cc1)c1cc2cnccc2[nH]1 | 82 |  |  |  |  | 7 | 70 | 63 | 12 | 
11 | O=C(/C=C/c1cccnc1)NCCCCC1CCN(C(=O)c2ccccc2)CC1 [DAPORINAD] | 46.7 |  |  | 0.033 | 0.007 | 15 | 67 | 7.7 | 15 | 
12 | O=C(NCc1ccc(S(=O)(=O)c2cccc(C(F)(F)F)c2)cc1)c1cc2cnccc2[nH]1 | 81 | 8 | 3 | 0.007 | 0.006 | 10 | 60 | 49 | 5 | 
13 | O=C(NCc1ccc(S(=O)(=O)N2CCCCC2)cc1)c1ccc2ncsc2c1 | 24 | 37 | > 10000 |  |  |  |  |  |  | Stability (Liver [2]): BLD
14 | O=C(NCc1ccc(S(=O)(=O)N2CCCCC2)cc1)c1cc2cnccc2s1 | 15 | 150 | 1600 |  |  |  |  |  |  | Stability (Liver [2]): BLD
15 | O=C(NCc1ccc(S(=O)(=O)c2ccc(N3CCOCC3)nc2)cc1)c1cc2ccncc2o1 | 51 | 3 | 1 | 0.017 | 0.005 | 14 | 48 | 42 | 15 | 
16 | O=C(NCc1ccc(S(=O)(=O)c2cc(F)cc(F)c2)cc1)c1cc2ccncc2s1 | 41 |  |  | 0.011 | 0.009 | 16 | 78 | 32 |  | 
17 | Cn1c(C(=O)NCc2ccc(S(=O)(=O)c3ccccc3)cc2)cc2ccncc21 | 71 | 410 | > 10000 |  |  |  |  |  |  | Stability (Liver [2]): BLD
18 | O=C(NCc1ccc(S(=O)(=O)c2cccc(C(F)(F)F)c2)cc1)c1cc2ccncc2s1 | 43 |  | 1 | 0.002 | 0.004 | 14 | 73 | 35 | 8 | 
